Experiment [1] has as its system 5HT3 receptors. Particulars: rats, Bezold-Jarisch reflex; compounds studied in J. Pharm. Pharmacol. 40, 301-302 (1988); cited from earlier work.
In experiment [2] the target is T1, 5HT1D receptors (Bos taurus, UniProt F1MGM3).
T1 construct: membrane preparations of bovine caudate nuclei; from tissue; host or cells: bovine caudate nuclei, membrane preparation
Nature of the experiment: Displacement of tritiated serotonin from 5HT1D receptors on membrane preparations of bovine caudate nuclei. Particulars: bovine caudate nuclei membranes, in vitro, read-out: concentration which inhibits 50% of the binding of the tritiated compound (IC50).

Experiment [3] relates to 5HT1D receptor. Particulars: Headache 29, 420-422, July 1989; cited from earlier work.
The test system of experiment [4] is 5HT1A receptor. The following applies: Headache 29, 420-422, July 1989; cited from earlier work.
For experiment [5] the following is noted: in man; cited from earlier work.

Each structure is given as a SMILES string.

T1 sequence (F1MGM3 1-403): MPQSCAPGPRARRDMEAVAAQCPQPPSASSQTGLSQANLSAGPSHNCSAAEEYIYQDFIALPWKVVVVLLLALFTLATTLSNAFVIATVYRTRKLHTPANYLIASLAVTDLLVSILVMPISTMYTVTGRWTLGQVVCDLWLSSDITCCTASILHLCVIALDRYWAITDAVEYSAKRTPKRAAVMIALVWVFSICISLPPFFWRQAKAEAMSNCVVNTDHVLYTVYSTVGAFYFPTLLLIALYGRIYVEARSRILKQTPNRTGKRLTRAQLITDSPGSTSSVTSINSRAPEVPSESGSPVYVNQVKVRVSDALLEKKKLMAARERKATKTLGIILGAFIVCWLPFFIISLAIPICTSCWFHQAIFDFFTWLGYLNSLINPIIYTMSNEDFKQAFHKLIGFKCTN

For `COc1cc(N)c(Cl)cc1C(=O)NC1CN2CCC1CC2` (stereo not shown) [zacopride], the “dose which inhibits 50% of the serotonin activity (ID50)” value in experiment [1] was roughly 0.00025 mg/kg.
For `CN1[C@@H]2CC[C@H]1CC(OC(=O)c1c[nH]c3ccccc13)C2` (stereo partly shown) [ICS 205-930], the “dose which inhibits 50% of the serotonin activity (ID50)” value in experiment [1] is reported as “approximately 1 μg/kg”.
With `CCN(CC)CCNC(=O)c1cc(Cl)c(N)cc1OC` [metoclopramide], the “dose which inhibits 50% of the serotonin activity (ID50)” value in experiment [1] was roughly 0.4 mg/kg.
On to `CNS(=O)(=O)Cc1ccc2[nH]cc(CCN(C)C)c2c1` [sumatriptan], for which the IC50 in experiment [2] was roughly 100 nM. Also, the “agonist activity at the 5HT1D receptor” value in experiment [3] is recorded as “powerful agonist of the 5HT1D receptor”. Also, the “agonist activity at the 5HT1A receptor” value in experiment [4] was “weak agonist of the 5HT1A receptor”. Moreover, in experiment [5], the antimigraine activity entry is on record as “marked antimigraine activity in man”.

These data come from patent publication US5252749A, “Ethers of thienocyclopentanone oximes, their preparation and pharmaceutical compositions containing them” (Elf Sanofi, priority 1991, dated 1993).
